According to patent publication US20050118204A1, “Methods for controlling membrane permeability of a membrane permeable substance and screening methods for a membrane permeable substance” (priority 2003, published 2005):

How the values were obtained:
dermal fibroblast [1] = assay: Enhancing effect of incorporation of Arg oligomer using substance positively changing membrane curvature (Test Example 5); type: cell-based; conditions: Arg oligomer 1 μM, 10 minutes
Procedure: The enhancing effect of incorporation of an Arg oligomer was evaluated by using skin-related cells (dermal fibroblast). Dermal fibroblast (Fibrocell, produced by Kurabo Industries, Ltd.) was seeded on a 6-well plate in an amount of 3×10^4 (cell/well) and cultivated with D-MEM Culture Medium (Dulbecco's modified Eagle medium, containing 10% serum, penicillin: 50 U/mL, streptomycin: 50 μg/mL) for 2 days. After cultivating for 2 days, the culture medium was removed from the wells of the 6-well plate, and D-MEM Culture Medium adjusted to contain 1,3-butanediol in a concentration of 2.5, 5 or 10 mM was added. After incubating for 5 minutes (37° C., 5% CO2), an Arg oligomer was added to the respective plates to a concentration of 1 μM and incubated for 10 minutes. After 10 minutes, the culture medium was removed by suction, and the wells were rinsed twice with an isotonic phosphate buffer solution. 500 μL of 1% Triton X-100 was added to the respective wells, followed by shaking at room temperature under light shielding for 1 hour, to lyse the cells. After thoroughly stirring by pipetting, the contents of the respective cells were transferred by 200 μL to a 96-well black cell, and fluorescence of 535 nm was measured under excitation with a spectrophotofluorometer (microplate reader, Wallac 1420 ARVOsx) at 485 nm.

dermal fibroblast [2] = assay: Suppressing effect of incorporation of Arg oligomer using substance negatively changing membrane curvature (Test Example 6); type: cell-based; conditions: Arg oligomer 1 μM, 10 minutes
Procedure: The suppressing effect of incorporation of an Arg oligomer was evaluated by using skin-related cells (dermal fibroblast). Dermal fibroblast (Fibrocell, produced by Kurabo Industries, Ltd.) was seeded on a 6-well plate in an amount of 3×10^4 (cell/well) and cultivated with D-MEM Culture Medium (Dulbecco's modified Eagle medium, containing 10% serum, penicillin: 50 U/mL, streptomycin: 50 μg/mL) for 2 days. After cultivating for 2 days, the culture medium was removed from the wells of the 6-well plate, and D-MEM Culture Medium adjusted to contain sucrose in a concentration of 2.5, 5 or 10 mM was added. After incubating for 5 minutes (37° C., 5% CO2), an Arg oligomer was added to the respective plates to a concentration of 1 μM and incubated for 10 minutes. After lapsing 10 minutes, the culture medium was removed by suction, and the contents of the wells were rinsed twice with an isotonic phosphate buffer solution. 500 μL of 1% Triton X-100 was added to the respective wells, followed by shaking at room temperature under light shielding for 1 hour, to lyse the cells. After thoroughly stirring by pipetting, the contents of the respective wells were transferred by 200 μL to a 96-well black cell, and fluorescence of 535 nm was measured under excitation with a spectrophotofluorometer (microplate reader, Wallac 1420 ARVOsx) at 485 nm. The addition of sucrose decreased the fluorescence intensity depending upon the concentration of sucrose by 8% with a sucrose concentration of 2.5 mM, 19% with 5 mM and 37% with 10 mM, in comparison to the case where no sucrose was added. According to the aforementioned experimentation, sucrose is a compound changing the membrane curvature to concave, and it is considered that the change of the membrane suppresses the membrane permeability of the Arg oligomer.

[3] = Phase change of cubic phase of lecithin/sodium cholate system on adding sucrose; type: physicochemical; conditions: cubic phase of 22.5% water, 50.4% phosphatidylcholine, 27.1% sodium cholate by weight at 25° C
Source text: The suppressing effect of incorporation of an Arg oligomer was investigated upon adding sucrose as a permeation suppressing substance, which was disclosed as a substance negatively changing the membrane curvature in Biochimica et Biophysica Acta (BBA)—Biomembranes, vol. 1285, Issue 1, p. 109-122 (1996). The inventors confirmed that a cubic phase of lecithin/sodium cholate system was constituted by utilizing lecithin (phosphatidylcholine) as a major constitutional component of the phospholipid constituting a cell membrane, and the cubic phase was changed to a hexagonal phase by adding sucrose thereto (as described in Biochim. Biophys. Acta., vol. 125, p. 563-580 (1966)). The phase change was determined by a change of the shape observed by a polarization microscope, the presence or absence of polarization with a polarizing film (a lamellar phase and a hexagonal phase were viewed brightly owing to the polarization thereof, but a cubic phase is viewed darkly), or a difference in spectrum patterns obtained by small angle X-ray scattering. The cubic phase was formed by mixing 22.5% by weight of water, 50.4% by weight of phosphatidylcholine and 27.1% by weight of sodium cholate at 25° C. When sucrose was added to the cubic phase in a proportion of 3.5% by weight or more, the cubic phase was changed to a lamellar phase. […]

erythrocytes = assay: Influence of osmotic pressure on membrane permeation of Tat Peptide (48-60) into erythrocyte (Test Example 4); type: cell-based, sheep; conditions: 10 μM, 37° C, 10 minutes; hypotonic versus isotonic phosphate buffer solution
Procedure: 5 mL of preserved sheep blood (available from Japan Biomaterial Center Co., Ltd.) was placed in a tube, and after subjecting to centrifugal separation (4° C., 3,000 g, 3 min), the supernatant fluid was removed. 5 mL of physiological saline was added thereto, followed by lightly stirring, and then subjected to centrifugal separation (4° C., 3,000 g, 3 min). The same operation was repeated to obtain an erythrocyte pellet. 400 μL of an isotonic phosphate buffer solution was added to 400 μL of the erythrocyte pellet, and after stirring, the mixture was subjected to centrifugal separation (4° C., 3,000 g, 3 min), followed by removing the supernatant fluid. The same operation was repeated to obtain an erythrocyte pellet for evaluation. […] The solution in the Coulter Counter® is replaced by a hypotonic phosphate buffer solution (70% hypotonicity), and the diameter of the erythrocytes floating in the hypotonic phosphate buffer solution was measured in the same manner as in the case of the isotonic phosphate buffer solution. The diameter of the erythrocytes in a hypertonic phosphate buffer solution (130% hypertonicity) was also measured in the same manner. […]
An erythrocyte pellet for evaluation was prepared in the same manner as in Test Example 1. […] The supernatant fluid was measured for fluorescence intensity with a microplate reader or a spectrophotofluorometer. […]

Compound: CC(O)CCO (centres unmarked) [1,3-butanediol]
- increase of fluorescence intensity (Arg oligomer incorporation) versus no addition (dermal fibroblast [1]; 2.5 mM of added substance): about 15%

Compound: N#C[S-].[Na+] [sodium thiocyanate]
- increase of fluorescence intensity (Arg oligomer incorporation) versus no addition (dermal fibroblast [1]; 2.5 mM of added substance): about 10%
- increase of fluorescence intensity (Arg oligomer incorporation) versus no addition (dermal fibroblast [1]; 10 mM of added substance): about 15%

Compound: OC[C@H]1O[C@@](CO)(O[C@H]2O[C@H](CO)[C@@H](O)[C@H](O)[C@H]2O)[C@@H](O)[C@@H]1O [sucrose]
- decrease of fluorescence intensity (Arg oligomer incorporation) versus no sucrose (dermal fibroblast [2]; sucrose 2.5 mM): 8%
- decrease of fluorescence intensity (Arg oligomer incorporation) versus no sucrose (dermal fibroblast [2]; sucrose 5 mM): 19%
- decrease of fluorescence intensity (Arg oligomer incorporation) versus no sucrose (dermal fibroblast [2]; sucrose 10 mM): 37%
- proportion added at which the cubic phase was changed to a lamellar phase [3]: ≥ 3.5 % by weight

Compound: rhodamine-GABA-GRKKRRQRRRPPQC-NH2.8CF3COOH [Tat Peptide]
- amount of the Tat Peptide which penetrated into the erythrocytes on lowering the osmotic pressure, by fluorescence intensity (erythrocytes): increased
